Test results from US7202282B2, “Microemulsions for selective molecular separation” (University of Florida, priority 2002, dated 2007).

Assay: selective molecular separation (partitioning) of local anesthetics by a microemulsion having an electron deficient aromatic ring
Format: physicochemical
Settings: microemulsion with electron deficient ring oil, e.g. 1,3 di(trifluoromethyl) benzene
Excerpt: In one embodiment, the materials and/or methods of the subject invention can be used to separate drugs of the same class. A specific embodiment involves separating local anesthetics. […] This is accomplished by exploiting differences in electron density in π electron orbitals.
In these molecules, the π electron orbitals are aligned at right angles to the planar surface of the benzene rings. Differences in substitution by the side chain in cocaine or bupivacaine cause either electron depletion (δ^+) or enrichment (δ^−). Such characteristics can be used to selectively separate these molecules.
According to the subject invention, any oil or “mating” molecule with a benzene ring is acceptable in providing a microemulsion system, as long as the substitutions are electron withdrawing from the benzene ring into the side chains. In this case, the electron deficient ring is a component of a molecule (e.g., 1,3 di(trifluoromethyl) benzene) that, at room and physiological temperatures, is an oil (FIG. 3). Thus, these oil molecules can be used to construct the lipid core of a microemulsion or may be added as solutes into the lipid core of a microemulsion wherein another oil serves as the lipid core.

partitioning into the microemulsion (molecular separation, FIG. 4): selectively partition
Structure (SMILES): CCCCN1CCCCC1C(=O)Nc1c(C)cccc1C (stereo not shown) [bupivacaine]
